According to patent publication US11832638B2, “N-acyl derivatives of gamma amino-butyric acid and beta alanine as food flavouring compounds” (GIVAUDAN SA, priority 2012, dated 2023):

Assays:
[1] = Tasting in low fat mayonnaise; conditions: 0.5 ppm in low fat mayonnaise (27% fat)
Experimental: (§1) The following formulations were prepared and tasted by trained panelists.
Fat levels between 10-80%
Low fat Mayonnaise (27% Fat)

[2] = Tasting in pilaf (cooked rice with flavoured butter); conditions: standard cooked rice with 10% of the C18:2-gaba flavoured butter
Experimental: as §1

[3] = Comparison in a strawberry drink; conditions: 2 ppm, 7% sucrose, 0.1% citric acid, strawberry flavour 0.015%
Source text: Comparison in a Strawberry Drink
Base is 7% sucrose, 0.1% citric acid, and a proprietary strawberry flavour @0.015%

[4] = Test in a strawberry yoghurt; conditions: 2 ppm, 1.5% fat yoghurt, 8% sucrose, strawberry flavour 0.015%
Source text: Test in a Strawberry Yoghurt
Base: Yoghurt 1.5% fat yoghurt, 8% sucrose, proprietary strawberry flavour @ 0.015%

[5] = Tasting in cheese sauce; conditions: 0.5 PPM in cheese sauce 5% fat 1.6% salt
Experimental: as §1
Cheese sauce: 5% fat 1.6% salt

[6] = Comparison in beef bouillon; conditions: 2 ppm, Maggi beef bouillon 1 tablet in 500 ml hot water
Experimental: Comparison in Beef Bouillon
Base is Maggi beef bouillon 1 tablet in 500 ml of hot water

[7] = Tasting in low fat salad dressing; conditions: 0.5 PPM in low fat salad dressing (13.6% fat)
Experimental: as §1
low fat salad dressing (13.6% Fat)

[8] = Tasting in spreadable cheese ERU; conditions: 0.5 PPM in spreadable cheese ERU
Experimental: as §1

Compound: CCCCC/C=C\C/C=C\CCCCCCCC(=O)NCCCC(=O)O [C18:2-gaba]
- tasting result (trained panelists) [1]: creamy, thick mouthfeel with a full fat impression
- tasting result (trained panelists) [2]: more mouthfeel, with a lingering creamy authentic butter taste
- taste description [3]: fatty mouthfeel, creamy strawberry, fruity and juicy
- taste description [4]: creamy, fruity authentic strawberry , stronger strawberry, ripe, long lasting, juicy
- tasting result (trained panelists) [5]: Full, Salty, cheese bite expanding
- taste description [6]: salty, savoury, full
- tasting result (trained panelists) [7]: better mouthfeel that was impressively creamy
- tasting result (trained panelists) [8]: Full, Salty, cheese bite, more mature
